Measured values taken from patent publication US11584737B2, “Heterocyclic compound” (TAKEDA PHARMACEUTICAL COMPANY LIMITED, priority 2018, dated 2023).

Key:
CDK12/CycK complex = CDK12/CycK complex (Homo sapiens, UniProt Q9NYV4); test: Measurement of CDK12 inhibitory activity by binding assay (BODIPY-FL labeled AT-7519 high concentration conditions, 1320 nM); details: inhibitory rate against CDK12 at 1 μM test compound, 1320 nM BODIPY-FL-labeled AT-7519, 8 nM CDK12/CycK
Protocol: (4) Measurement of CDK12 Inhibitory Activity by Binding Assay (BODIPY-FL Labeled AT-7519 High Concentration Conditions)
His-tagged CDK12/CycK complex was blended with a binding assay buffer supplemented with BODIPY-FL labeled AT-7519, terbium-labeled streptavidin and biotin-labeled anti-histidine antibody. This solution was added to an assay plate containing a test compound dispensed therein, and the mixture was left standing for 120 min at room temperature. The final concentration of CDK12/CycK complex, BODIPY-FL-labeled AT-7519, terbium-labeled streptavidin and biotin-labeled anti-histidine antibody was set to 8 nM, 1320 nM, 0.2 nM, and 0.4 nM, respectively. The fluorescence intensity derived from terbium and BODIPY-FL was measured using Envision. The signal value of each well was determined using the TR-FRET ratio calculated by the following formula. TR-FRET ratio=(fluorescence value of BODIPY-FL)÷(fluorescence value of terbium)
The inhibitory rate (%) of the test compound against CDK12 was calculated by the following formula. Inhibitory rate (%)=(1−(TR-FRET ratio of test compound−blank)÷(control−blank))×100
The TR-FRET ratio of the CDK12 enzyme reaction mixture under compound non-addition conditions is indicated as control, and the TR-FRET ratio under 30 μM AT-7519 addition conditions is indicated as blank.
The inhibitory rate of the test compound against CDK12 at 1 μM is shown below.

A2780 cells = test: In vitro proliferation suppression test (CellTiter-Glo); assay type: cell-based, human; details: Homo sapiens, 72 h, A2780 cell proliferation inhibitory rate at 1 μM test compound, three days
Protocol: Experimental Example 4: In Vitro Proliferation Suppression Test
The proliferation suppressive activity of compound in A2780 cells was evaluated by the following method.
A2780 cells were seeded in a 384-well white plate at a cell density of 1,000 cells/40 μL/well or a 96-well white plate at a cell density of 1,000 cells/90 μL/well using an assay medium (RPMI1640 medium containing 10% fetal bovine serum (FUJIFILM Wako Pure Chemical Corporation)) and incubated at 37° C. in 5% CO2.
The next day, a test compound dissolved in dimethyl sulfoxide (DMSO) was diluted with an assay medium, the obtained compound solution was added by 40 μL/well or 10 μL/well to each well of the plate containing A2780 cells and the mixture was incubated (test compound addition group). In addition, a similar reaction was performed without adding the test compound (test compound non-addition group).
Three days later, 80 μL or 100 μL of CellTiter-Glo reagent (Promega) was added, and the mixture was stirred for 10 min. Thereafter, the luminescence of each well was measured by ARVO-MX multilabel counter (Perkin Elmer Inc.).
The proliferation inhibitory rate (%) of each test compound against A2780 cells was calculated by the following calculation formula. Proliferation inhibitory rate (%)=(1−luminescence of test compound addition group÷luminescence of test compound non-addition group)×100
The A2780 cell proliferation inhibitory rate (%) of 1 μM test compound is shown below.

CDK12/CycK complex, sequence (Q9NYV4 whole entry, species assumed): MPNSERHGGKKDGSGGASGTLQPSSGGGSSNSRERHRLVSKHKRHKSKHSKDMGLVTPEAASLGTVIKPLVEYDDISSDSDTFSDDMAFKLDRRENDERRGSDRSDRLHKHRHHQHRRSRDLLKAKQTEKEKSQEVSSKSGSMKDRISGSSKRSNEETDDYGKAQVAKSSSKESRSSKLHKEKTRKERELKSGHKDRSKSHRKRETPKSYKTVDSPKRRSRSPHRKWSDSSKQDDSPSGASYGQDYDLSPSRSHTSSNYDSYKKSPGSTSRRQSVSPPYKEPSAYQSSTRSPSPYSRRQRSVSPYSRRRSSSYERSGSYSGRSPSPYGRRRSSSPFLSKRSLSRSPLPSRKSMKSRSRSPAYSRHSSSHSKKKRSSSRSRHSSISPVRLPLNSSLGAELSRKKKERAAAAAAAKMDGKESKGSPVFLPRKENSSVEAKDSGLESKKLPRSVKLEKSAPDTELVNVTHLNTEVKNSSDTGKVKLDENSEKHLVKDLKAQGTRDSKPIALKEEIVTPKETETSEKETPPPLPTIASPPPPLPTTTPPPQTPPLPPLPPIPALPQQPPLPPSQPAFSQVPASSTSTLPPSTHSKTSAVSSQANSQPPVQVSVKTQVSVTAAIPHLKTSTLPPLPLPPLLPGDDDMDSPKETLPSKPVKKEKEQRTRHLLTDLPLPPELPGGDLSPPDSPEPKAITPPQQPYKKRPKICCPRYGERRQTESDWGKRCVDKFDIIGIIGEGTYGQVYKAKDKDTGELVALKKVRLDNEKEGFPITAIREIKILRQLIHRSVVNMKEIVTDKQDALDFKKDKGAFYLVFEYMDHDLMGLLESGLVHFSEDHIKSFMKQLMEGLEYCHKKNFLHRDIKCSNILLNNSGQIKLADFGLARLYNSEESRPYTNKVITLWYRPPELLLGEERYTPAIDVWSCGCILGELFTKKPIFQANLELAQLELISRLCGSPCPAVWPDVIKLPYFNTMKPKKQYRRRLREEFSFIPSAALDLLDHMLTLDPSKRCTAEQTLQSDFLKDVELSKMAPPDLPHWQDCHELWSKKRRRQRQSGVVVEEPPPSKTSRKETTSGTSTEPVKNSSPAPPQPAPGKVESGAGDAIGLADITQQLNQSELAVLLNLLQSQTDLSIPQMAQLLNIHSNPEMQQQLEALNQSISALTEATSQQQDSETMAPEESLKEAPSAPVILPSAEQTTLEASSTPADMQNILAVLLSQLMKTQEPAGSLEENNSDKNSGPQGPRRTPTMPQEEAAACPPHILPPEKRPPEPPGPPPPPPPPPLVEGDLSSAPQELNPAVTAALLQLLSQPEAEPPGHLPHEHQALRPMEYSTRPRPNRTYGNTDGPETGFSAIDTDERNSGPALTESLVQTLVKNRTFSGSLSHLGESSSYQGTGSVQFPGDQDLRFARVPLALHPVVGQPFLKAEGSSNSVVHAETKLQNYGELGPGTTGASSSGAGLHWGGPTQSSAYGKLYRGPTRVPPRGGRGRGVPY
CDK12/CycK complex, sequence (O75909 whole entry partner, species assumed): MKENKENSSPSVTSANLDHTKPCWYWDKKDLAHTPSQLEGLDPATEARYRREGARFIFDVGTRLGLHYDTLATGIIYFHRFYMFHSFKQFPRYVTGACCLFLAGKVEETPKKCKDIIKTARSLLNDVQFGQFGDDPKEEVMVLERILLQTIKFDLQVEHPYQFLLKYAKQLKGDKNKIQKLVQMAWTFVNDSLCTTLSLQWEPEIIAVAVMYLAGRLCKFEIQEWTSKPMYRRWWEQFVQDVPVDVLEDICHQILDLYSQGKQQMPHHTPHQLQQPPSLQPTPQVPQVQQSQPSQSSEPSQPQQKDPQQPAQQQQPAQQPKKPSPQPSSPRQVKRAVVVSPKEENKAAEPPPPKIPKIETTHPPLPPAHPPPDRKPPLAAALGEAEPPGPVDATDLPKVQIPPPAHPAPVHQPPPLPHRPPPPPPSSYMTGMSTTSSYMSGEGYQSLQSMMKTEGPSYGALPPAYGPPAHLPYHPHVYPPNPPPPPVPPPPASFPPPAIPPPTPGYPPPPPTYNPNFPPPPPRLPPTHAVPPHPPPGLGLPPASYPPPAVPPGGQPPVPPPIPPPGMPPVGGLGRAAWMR

Structure (SMILES) | inhibition at 1 µM (CDK12/CycK complex) | inhibition at 1 µM (A2780 cells)
COc1ncc(-c2ccc(N(C(=O)NCC(F)F)[C@H]3CC[C@H](Nc4ncc(C(F)(F)F)c(-c5n[nH]cc5Cl)n4)CC3)nc2)cn1 [Example 693, 1-(trans-4-((4-(4-chloro-1H-pyrazol-3-yl)-5-(trifluoromethyl)pyrimidin-2-yl)amino)cyclohexyl)-3-(2,2-difluoroethyl)-1-(5-(2-methoxypyrimidin-5-yl)pyridin-2-yl)urea] | 100% | 98%
COc1ncc(-c2ccc(N(C(=O)NCC(F)(F)F)[C@H]3CC[C@H](Nc4ncc(C(F)(F)F)c(-c5n[nH]cc5Cl)n4)CC3)nc2)cn1 [Example 729, 1-(trans-4-((4-(4-chloro-1H-pyrazol-3-yl)-5-(trifluoromethyl)pyrimidin-2-yl)amino)cyclohexyl)-1-(5-(2-methoxypyrimidin-5-yl)pyridin-2-yl)-3-(2,2,2-trifluoroethyl)urea] | 92% | 98%
COc1ncc(-c2cnc(N(C(=O)NCC(C)(F)F)[C@H]3CC[C@H](Nc4ncc(C(F)(F)F)c(-c5n[nH]cc5Cl)n4)CC3)cn2)cn1 [Example 740, 1-(trans-4-((4-(4-chloro-1H-pyrazol-3-yl)-5-(trifluoromethyl)pyrimidin-2-yl)amino)cyclohexyl)-3-(2,2-difluoropropyl)-1-(5-(2-methoxypyrimidin-5-yl)pyrazin-2-yl)urea] | 86% | 96%
COc1ncc(-c2cnc(N(C(=O)NCC3(F)CC3)[C@H]3CC[C@H](Nc4ncc(C(F)(F)F)c(-c5n[nH]cc5Cl)n4)CC3)cn2)cn1 [Example 742, 1-(trans-4-((4-(4-chloro-1H-pyrazol-3-yl)-5-(trifluoromethyl)pyrimidin-2-yl)amino)cyclohexyl)-3-((1-fluorocyclopropyl)methyl)-1-(5-(2-methoxypyrimidin-5-yl)pyrazin-2-yl)urea] | 87% | 96%
COc1ncc(-c2cnc(N(C(=O)NCC(F)(F)F)[C@H]3CC[C@H](Nc4ncc(C(F)(F)F)c(-c5n[nH]cc5Cl)n4)CC3)cn2)cn1 [Example 743, 1-(trans-4-((4-(4-chloro-1H-pyrazol-3-yl)-5-(trifluoromethyl)pyrimidin-2-yl)amino)cyclohexyl)-1-(5-(2-methoxypyrimidin-5-yl)pyrazin-2-yl)-3-(2,2,2-trifluoroethyl)urea] | 81% | 95%
COc1ncc(-c2cnc(N(C(=O)NCC(F)F)[C@H]3CC[C@H](Nc4ncc(C(F)(F)F)c(-c5n[nH]cc5Cl)n4)CC3)cn2)cn1 [Example 744, 1-(trans-4-((4-(4-chloro-1H-pyrazol-3-yl)-5-(trifluoromethyl)pyrimidin-2-yl)amino)cyclohexyl)-3-(2,2-difluoroethyl)-1-(5-(2-methoxypyrimidin-5-yl)pyrazin-2-yl)urea] | 92% | 97%
CCNC(=O)N(c1cnc(-c2cnn(C)c2)cn1)[C@H]1CC[C@H](Nc2ncc(C(F)(F)F)c(-c3ccn(C(F)F)n3)n2)CC1 [Example 764, 1-(trans-4-((4-(1-(difluoromethyl)-1H-pyrazol-3-yl)-5-(trifluoromethyl)pyrimidin-2-yl)amino)cyclohexyl)-3-ethyl-1-(5-(1-methyl-1H-pyrazol-4-yl)pyrazin-2-yl)urea] | 91% | 95%
COc1ncc(-c2cnc(N(C(=O)OCC(F)F)[C@H]3CC[C@H](Nc4ncc(C(F)(F)F)c(-c5cncc(S(C)(=O)=O)c5)n4)CC3)cn2)cn1 [Example 766, 2,2-difluoroethyl (trans-4-((4-(5-(methanesulfonyl)pyridin-3-yl)-5-(trifluoromethyl)pyrimidin-2-yl)amino)cyclohexyl) (5-(2-methoxypyrimidin-5-yl)pyrazin-2-yl)carbamate] | 96% | 99%
Cn1ccc(-c2cnc(N(C(=O)NCC(F)(F)F)[C@H]3CC[C@H](Nc4ncc(C(F)(F)F)c(-c5ccn(C(F)F)n5)n4)CC3)cn2)cc1=O [Example 768, 1-(trans-4-((4-(1-(difluoromethyl)-1H-pyrazol-3-yl)-5-(trifluoromethyl)-pyrimidin-2-yl)amino)-cyclohexyl)-1-(5-(1-methyl-2-oxo-1,2-dihydropyridin-4-yl)-pyrazin-2-yl)-3-(2,2,2-trifluoroethyl)urea] | 92% | 
COc1ncc(-c2cnc(N(C(=O)NCC(F)F)[C@H]3CC[C@H](Nc4ncc(C(F)(F)F)c(OC5(C)COC5)n4)CC3)cn2)cn1 [Example 777, 3-(2,2-difluoroethyl)-1-(5-(2-methoxypyrimidin-5-yl)pyrazin-2-yl)-1-(trans-4-((4-((3-methyloxetan-3-yl)oxy)-5-(trifluoromethyl)pyrimidin-2-yl)amino)cyclohexyl)urea] | 92% | 
COCC(=O)N(c1cnc(-c2cnc(OC)nc2)cn1)[C@H]1CC[C@H](Nc2ncc(C(F)(F)F)c(-c3n[nH]cc3Cl)n2)CC1 [Example 796, N-(trans-4-((4-(4-chloro-1H-pyrazol-3-yl)-5-(trifluoromethyl)pyrimidin-2-yl)amino)cyclohexyl)-2-methoxy-N-(5-(2-methoxypyrimidin-5-yl)pyrazin-2-yl)acetamide] | 95% | 
COCC(=O)N(c1cnc(-c2cnc(OC)nc2)cn1)[C@H]1CC[C@H](Nc2ncc(C(F)(F)F)c(-c3ccn(C(F)F)n3)n2)CC1 [Example 797, N-(trans-4-((4-(1-(difluoro-methyl)-1H-pyrazol-3-yl)-5-(trifluoromethyl)pyrimidin-2-yl)amino)cyclohexyl)-2-methoxy-N-(5-(2-methoxypyrimidin-5-yl)pyrazin-2-yl)acetamide] | 92% | 
COCCOC(=O)N(c1cnc(-c2cnc(OC)nc2)cn1)[C@H]1CC[C@H](Nc2ncc(C(F)(F)F)c(-c3cncc(S(C)(=O)=O)c3)n2)CC1 [Example 800, 2-methoxyethyl (trans-4-((4-(5-(methanesulfonyl)pyridin-3-yl)-5-(trifluoromethyl)pyrimidin-2-yl)amino)cyclohexyl) (5-(2-methoxypyrimidin-5-yl)pyrazin-2-yl)carbamate] | 91% | 
COc1ncc(-c2cnc(N(C(=O)OCCN3CCOCC3)[C@H]3CC[C@H](Nc4ncc(C(F)(F)F)c(-c5cncc(S(C)(=O)=O)c5)n4)CC3)cn2)cn1 [Example 808, 2-(morpholin-4-yl)ethyl (trans-4-((4-(5-(methanesulfonyl)-pyridin-3-yl)-5-(trifluoro-methyl)pyrimidin-2-yl)amino)cyclohexyl) (5-(2-methoxypyrimidin-5-yl)pyrazin-2-yl)carbamate] | 99% | 
COCC(=O)N(c1cnc(-c2cnn(C)c2)cn1)[C@H]1CC[C@H](Nc2ncc(C(F)(F)F)c(-c3ccn(C(F)F)n3)n2)CC1 [Example 811, N-(trans-4-((4-(1-(difluoromethyl)-1H-pyrazol-3-yl)-5-(trifluoromethyl)pyrimidin-2-yl)amino)cyclohexyl)-2-methoxy-N-(5-(1-methyl-1H-pyrazol-4-yl)pyrazin-2-yl)acetamide] | 94% | 
COCC(=O)N(c1cnc(-c2cnn(C)c2)cn1)[C@H]1CC[C@H](Nc2ncc(C(F)(F)F)c(-c3cncc(S(C)(=O)=O)c3)n2)CC1 [Example 812, N-(trans-4-((4-(5-(methanesulfonyl)pyridin-3-yl)-5-(trifluoromethyl)pyrimidin-2-yl)amino)cyclohexyl)-2-methoxy-N-(5-(1-methyl-1H-pyrazol-4-yl)pyrazin-2-yl)acetamide] | 95% | 
CCCC(=O)N(c1cnc(-c2cnn(C)c2)cn1)[C@H]1CC[C@H](Nc2ncc(C(F)(F)F)c(-c3cncc(S(C)(=O)=O)c3)n2)CC1 [Example 814, N-(trans-4-((4-(5-(methanesulfonyl)pyridin-3-yl)-5-(trifluoromethyl)pyrimidin-2-yl)amino)cyclohexyl)-N-(5-(1-methyl-1H-pyrazol-4-yl)pyrazin-2-yl)butanamide] | 99% | 
